# Source: patent publication US20100003711A1, “Methods to identify therapeutic agents” (THE SCRIPPS RESEARCH INSTITUTE, priority 2005, published 2010)
# Tests used:
# neuronal cell lines = assay: Cytotoxicity towards neuronal cell lines (similar procedures); format: cell-based
# J774.1 macrophages = assay: Lipid-loading assay (foam cell formation); format: cell-based, murine; conditions: LDL 100 μg/mL with 4a or 5a (20 μM), 72 h, unactivated J774.1 macrophages
# Protocol: Lipid-loading assay (foam cell formation). J774.1 macrophages were incubated in ATCC-recommended media containing 10% fetal bovine serum under a controlled atmosphere of 5 or 7% CO2 at 37° C., in 8-well chamber slides. […] At termination, cells were washed twice with PBS (pH 7.4). The cells were then fixed with 6% (v/v) paraformaldehyde in PBS for 30 minutes, rinsed with propylene glycol for 2 minutes and lipids were stained with 5 mg/ml Oil Red 0 for 8 minutes. The cells were counterstained with Harris' hematoxylin for 45 seconds, and background staining was removed with 6% paraformaldehyde followed by washing once in PBS and once in tap water. Cover slips were mounted onto the glass slides using glycerol and the slide preparations were examined by light microscopy. The number of lipid-laden cells was scored out of a total of at least 100 cells counted in a single field in each slide, and expressed as a percentage of total cells. Photographs were taken at 100× magnification.
# [1] = test system: Class A scavenger receptor (SR-A); assay: Scavenger receptor expression by flow cytometry, SR-A; format: cell-based, murine; conditions: cultured macrophages, compound in the absence of LDL
# Protocol: Cell surface CD36 and SR-A were measured by flow cytometry using CD36 (BD Biosciences Pharmingen, San Diego, Calif.) and CD204 (Serotec, Oxford, UK) specific monoclonal antibodies. See Liao et al. (2000) Arterioscler. Thromb. Vasc. Biol. 20: 1968-75; Hu et al. (1996) Blood 87: 2020-28. Murine macrophage J774A.1 cells were serum-starved overnight in media with 0.5% BSA. Cells (1×10^6) treated with cholesterol ozonation products or cholesterol ozonation product complexed with LDL for specified times were then washed twice with PBS. […] Expression of either CD36 or SR-A was determined with CD36 (BD Biosciences Pharmingen, San Diego, Calif.) and CD204 (Serotec, Oxford, U.K.) specific monoclonal antibodies, respectively. After washing off the primary antibody, secondary antibodies were added, cells were washed again, then analyzed on a FACS calibur 2 (Becton Dickinson, Sparks, Md.) flow cytometer and analyzed by CellQuant software. Results were expressed as mean fluorescence intensity±standard error of the mean (SEM) of at least duplicate determinations. Significance was determined using a student two-tail t test, with (*) indicating p<0.05, and (**) indicating p<0.01 versus the control.
# CD36 = assay: Scavenger receptor expression by flow cytometry, CD36; format: cell-based, murine
# Protocol: Cell surface CD36 and SR-A were measured by flow cytometry using CD36 (BD Biosciences Pharmingen, San Diego, Calif.) and CD204 (Serotec, Oxford, UK) specific monoclonal antibodies. See Liao et al. (2000) Arterioscler. Thromb. Vasc. Biol. 20: 1968-75; Hu et al. (1996) Blood 87: 2020-28. Murine macrophage J774A.1 cells were serum-starved overnight in media with 0.5% BSA. Cells (1×10^6) treated with cholesterol ozonation products or cholesterol ozonation product complexed with LDL for specified times were then washed twice with PBS. After harvesting the cells by scraping, they were fixed with 6% paraformaldehyde for 20 min; Cells were then resuspended in PBS containing 2% heat-inactivated FCS, 0.05% NaN3 and appropriate primary antibody, antibody conjugate or isotype control (1:100 dilution) and incubated on ice for 30 min. Expression of either CD36 or SR-A was determined with CD36 (BD Biosciences Pharmingen, San Diego, Calif.) and CD204 (Serotec, Oxford, U.K.) specific monoclonal antibodies, respectively. After washing off the primary antibody, secondary antibodies were added, cells were washed again, then analyzed on a FACS calibur 2 (Becton Dickinson, Sparks, Md.) flow cytometer and analyzed by CellQuant software. Results were expressed as mean fluorescence intensity±standard error of the mean (SEM) of at least duplicate determinations. Significance was determined using a student two-tail t test, with (*) indicating p<0.05, and (**) indicating p<0.01 versus the control.
# E-selectin (CD62E) = assay: Endothelial adhesion molecule expression by ELISA, E-selectin; format: cell-based, human
# Protocol: (§1) Endothelial cell surface adhesion molecule expression was measured by ELISA, using anti-human CD54 (ICAM-1), CD106 (VCAM-1) and CD62E (E-Selectin) antibodies (Leinco Technologies, Inc., St. Louis, Mo.). The ELISA method was modified from previously described procedures.
# (§2) Cells were then incubated with antibodies to VCAM-1, E-selectin, or ICAM-1 diluted 1:400 in PBS containing 5% FCS at 37° C. for 30 min. Wells were washed two times with PBS, then incubated with horseradish peroxidase (HRP)-conjugated goat anti-mouse IgG (Southern Biotechnology Associates, Birmingham, Ala., USA) in PBS/5% FCS at 37° C. for 30 min. The wells were washed four times with PBS, then incubated with H2O2/3,3′,5,5′-tetramethyl-benzidine peroxidase substrate (Pierce Chemical, Rockford, Ill., USA) for 30 min in the dark. The reaction was stopped by adding 25 μl of 8 N H2SO4, and the plates read on a microplate reader, blanking on wells stained with only secondary antibody. Each assay was performed in triplicate and the data are reported as the mean±SEM as a percentage of the expression level of the vehicle. To study the effect of cholesterol ozonation product 5a concentration (5-50 μM) on E-selectin expression, the assay was performed in an identical fashion as described above, with each point being the mean±SEM of at least duplicate measurements.
# ICAM-1 (CD54) = assay: Endothelial adhesion molecule expression by ELISA, ICAM-1; format: cell-based, human
# Protocol: as §1, §2
# U-937 monocytes cells = assay: Monocyte adhesion to endothelial cell monolayers by fluorescence spectroscopy; format: cell-based; conditions: alone or in complex with LDL
# THP-1 monocytes = assay: Monocyte morphology changes (differentiation into macrophages); format: cell-based, human; conditions: 12.5 or 25 μM, up to 7 days
# Protocol: THP-1 monocytes in suspension were plated in 8-well chambered slides. […] Media containing appropriate treatment compounds was replaced after 4 days. After 4 days treatment, morphologic changes of the adherent cells were assessed by phase-contrast microscopy and photographed using an Olympus Microfire digital camera.
# [2] = Aldolization of ketoaldehyde 4a with amino acids (1H NMR); format: physicochemical; conditions: DMSO-d6 (800 μl) and D2O (80 μl) without amino acid
# Protocol: Aldolization of ketoaldehyde 4a with amino acids. […] To this solution was added 1 equivalent of either: a) L-proline, b) glycine, c) L-lysine hydrochloride or d) L-lysine ethyl ester dihydrochloride. At time points the samples were analyzed by ^1H NMR.
# [3] = Aldolization of secoketoaldehyde 4a with atherosclerotic artery and blood fractions (1H NMR); format: in vitro ADME, human; conditions: in the presence of lyophilized PBS
# Protocol: Aldolization of secoketoaldehyde 4a with atherosclerotic artery and bloodfractions. […] To this solution was added either a) atherosclerotic artery (2.1 mg) that had been homogenized in PBS (1 ml) in a tissue homogenizer and then lyophilized to dryness, b) lyophilized human blood (1 ml), c) lyophilized human plasma (1 ml) or d) PBS lyophilized (1 ml). At time points samples were removed and analyzed by ^1H NMR vide supra.
# LDL / apoB-100 = LDL / apoB-100 (Homo sapiens, UniProt P04114); assay: Circular dichroism of LDL secondary structure; conditions: LDL 100 μg/ml with 10 μM compound, PBS pH 7.4, 37° C., up to 48 h; normal LDL ~40±2%
# Sequence of LDL / apoB-100 (P04114 28-4563): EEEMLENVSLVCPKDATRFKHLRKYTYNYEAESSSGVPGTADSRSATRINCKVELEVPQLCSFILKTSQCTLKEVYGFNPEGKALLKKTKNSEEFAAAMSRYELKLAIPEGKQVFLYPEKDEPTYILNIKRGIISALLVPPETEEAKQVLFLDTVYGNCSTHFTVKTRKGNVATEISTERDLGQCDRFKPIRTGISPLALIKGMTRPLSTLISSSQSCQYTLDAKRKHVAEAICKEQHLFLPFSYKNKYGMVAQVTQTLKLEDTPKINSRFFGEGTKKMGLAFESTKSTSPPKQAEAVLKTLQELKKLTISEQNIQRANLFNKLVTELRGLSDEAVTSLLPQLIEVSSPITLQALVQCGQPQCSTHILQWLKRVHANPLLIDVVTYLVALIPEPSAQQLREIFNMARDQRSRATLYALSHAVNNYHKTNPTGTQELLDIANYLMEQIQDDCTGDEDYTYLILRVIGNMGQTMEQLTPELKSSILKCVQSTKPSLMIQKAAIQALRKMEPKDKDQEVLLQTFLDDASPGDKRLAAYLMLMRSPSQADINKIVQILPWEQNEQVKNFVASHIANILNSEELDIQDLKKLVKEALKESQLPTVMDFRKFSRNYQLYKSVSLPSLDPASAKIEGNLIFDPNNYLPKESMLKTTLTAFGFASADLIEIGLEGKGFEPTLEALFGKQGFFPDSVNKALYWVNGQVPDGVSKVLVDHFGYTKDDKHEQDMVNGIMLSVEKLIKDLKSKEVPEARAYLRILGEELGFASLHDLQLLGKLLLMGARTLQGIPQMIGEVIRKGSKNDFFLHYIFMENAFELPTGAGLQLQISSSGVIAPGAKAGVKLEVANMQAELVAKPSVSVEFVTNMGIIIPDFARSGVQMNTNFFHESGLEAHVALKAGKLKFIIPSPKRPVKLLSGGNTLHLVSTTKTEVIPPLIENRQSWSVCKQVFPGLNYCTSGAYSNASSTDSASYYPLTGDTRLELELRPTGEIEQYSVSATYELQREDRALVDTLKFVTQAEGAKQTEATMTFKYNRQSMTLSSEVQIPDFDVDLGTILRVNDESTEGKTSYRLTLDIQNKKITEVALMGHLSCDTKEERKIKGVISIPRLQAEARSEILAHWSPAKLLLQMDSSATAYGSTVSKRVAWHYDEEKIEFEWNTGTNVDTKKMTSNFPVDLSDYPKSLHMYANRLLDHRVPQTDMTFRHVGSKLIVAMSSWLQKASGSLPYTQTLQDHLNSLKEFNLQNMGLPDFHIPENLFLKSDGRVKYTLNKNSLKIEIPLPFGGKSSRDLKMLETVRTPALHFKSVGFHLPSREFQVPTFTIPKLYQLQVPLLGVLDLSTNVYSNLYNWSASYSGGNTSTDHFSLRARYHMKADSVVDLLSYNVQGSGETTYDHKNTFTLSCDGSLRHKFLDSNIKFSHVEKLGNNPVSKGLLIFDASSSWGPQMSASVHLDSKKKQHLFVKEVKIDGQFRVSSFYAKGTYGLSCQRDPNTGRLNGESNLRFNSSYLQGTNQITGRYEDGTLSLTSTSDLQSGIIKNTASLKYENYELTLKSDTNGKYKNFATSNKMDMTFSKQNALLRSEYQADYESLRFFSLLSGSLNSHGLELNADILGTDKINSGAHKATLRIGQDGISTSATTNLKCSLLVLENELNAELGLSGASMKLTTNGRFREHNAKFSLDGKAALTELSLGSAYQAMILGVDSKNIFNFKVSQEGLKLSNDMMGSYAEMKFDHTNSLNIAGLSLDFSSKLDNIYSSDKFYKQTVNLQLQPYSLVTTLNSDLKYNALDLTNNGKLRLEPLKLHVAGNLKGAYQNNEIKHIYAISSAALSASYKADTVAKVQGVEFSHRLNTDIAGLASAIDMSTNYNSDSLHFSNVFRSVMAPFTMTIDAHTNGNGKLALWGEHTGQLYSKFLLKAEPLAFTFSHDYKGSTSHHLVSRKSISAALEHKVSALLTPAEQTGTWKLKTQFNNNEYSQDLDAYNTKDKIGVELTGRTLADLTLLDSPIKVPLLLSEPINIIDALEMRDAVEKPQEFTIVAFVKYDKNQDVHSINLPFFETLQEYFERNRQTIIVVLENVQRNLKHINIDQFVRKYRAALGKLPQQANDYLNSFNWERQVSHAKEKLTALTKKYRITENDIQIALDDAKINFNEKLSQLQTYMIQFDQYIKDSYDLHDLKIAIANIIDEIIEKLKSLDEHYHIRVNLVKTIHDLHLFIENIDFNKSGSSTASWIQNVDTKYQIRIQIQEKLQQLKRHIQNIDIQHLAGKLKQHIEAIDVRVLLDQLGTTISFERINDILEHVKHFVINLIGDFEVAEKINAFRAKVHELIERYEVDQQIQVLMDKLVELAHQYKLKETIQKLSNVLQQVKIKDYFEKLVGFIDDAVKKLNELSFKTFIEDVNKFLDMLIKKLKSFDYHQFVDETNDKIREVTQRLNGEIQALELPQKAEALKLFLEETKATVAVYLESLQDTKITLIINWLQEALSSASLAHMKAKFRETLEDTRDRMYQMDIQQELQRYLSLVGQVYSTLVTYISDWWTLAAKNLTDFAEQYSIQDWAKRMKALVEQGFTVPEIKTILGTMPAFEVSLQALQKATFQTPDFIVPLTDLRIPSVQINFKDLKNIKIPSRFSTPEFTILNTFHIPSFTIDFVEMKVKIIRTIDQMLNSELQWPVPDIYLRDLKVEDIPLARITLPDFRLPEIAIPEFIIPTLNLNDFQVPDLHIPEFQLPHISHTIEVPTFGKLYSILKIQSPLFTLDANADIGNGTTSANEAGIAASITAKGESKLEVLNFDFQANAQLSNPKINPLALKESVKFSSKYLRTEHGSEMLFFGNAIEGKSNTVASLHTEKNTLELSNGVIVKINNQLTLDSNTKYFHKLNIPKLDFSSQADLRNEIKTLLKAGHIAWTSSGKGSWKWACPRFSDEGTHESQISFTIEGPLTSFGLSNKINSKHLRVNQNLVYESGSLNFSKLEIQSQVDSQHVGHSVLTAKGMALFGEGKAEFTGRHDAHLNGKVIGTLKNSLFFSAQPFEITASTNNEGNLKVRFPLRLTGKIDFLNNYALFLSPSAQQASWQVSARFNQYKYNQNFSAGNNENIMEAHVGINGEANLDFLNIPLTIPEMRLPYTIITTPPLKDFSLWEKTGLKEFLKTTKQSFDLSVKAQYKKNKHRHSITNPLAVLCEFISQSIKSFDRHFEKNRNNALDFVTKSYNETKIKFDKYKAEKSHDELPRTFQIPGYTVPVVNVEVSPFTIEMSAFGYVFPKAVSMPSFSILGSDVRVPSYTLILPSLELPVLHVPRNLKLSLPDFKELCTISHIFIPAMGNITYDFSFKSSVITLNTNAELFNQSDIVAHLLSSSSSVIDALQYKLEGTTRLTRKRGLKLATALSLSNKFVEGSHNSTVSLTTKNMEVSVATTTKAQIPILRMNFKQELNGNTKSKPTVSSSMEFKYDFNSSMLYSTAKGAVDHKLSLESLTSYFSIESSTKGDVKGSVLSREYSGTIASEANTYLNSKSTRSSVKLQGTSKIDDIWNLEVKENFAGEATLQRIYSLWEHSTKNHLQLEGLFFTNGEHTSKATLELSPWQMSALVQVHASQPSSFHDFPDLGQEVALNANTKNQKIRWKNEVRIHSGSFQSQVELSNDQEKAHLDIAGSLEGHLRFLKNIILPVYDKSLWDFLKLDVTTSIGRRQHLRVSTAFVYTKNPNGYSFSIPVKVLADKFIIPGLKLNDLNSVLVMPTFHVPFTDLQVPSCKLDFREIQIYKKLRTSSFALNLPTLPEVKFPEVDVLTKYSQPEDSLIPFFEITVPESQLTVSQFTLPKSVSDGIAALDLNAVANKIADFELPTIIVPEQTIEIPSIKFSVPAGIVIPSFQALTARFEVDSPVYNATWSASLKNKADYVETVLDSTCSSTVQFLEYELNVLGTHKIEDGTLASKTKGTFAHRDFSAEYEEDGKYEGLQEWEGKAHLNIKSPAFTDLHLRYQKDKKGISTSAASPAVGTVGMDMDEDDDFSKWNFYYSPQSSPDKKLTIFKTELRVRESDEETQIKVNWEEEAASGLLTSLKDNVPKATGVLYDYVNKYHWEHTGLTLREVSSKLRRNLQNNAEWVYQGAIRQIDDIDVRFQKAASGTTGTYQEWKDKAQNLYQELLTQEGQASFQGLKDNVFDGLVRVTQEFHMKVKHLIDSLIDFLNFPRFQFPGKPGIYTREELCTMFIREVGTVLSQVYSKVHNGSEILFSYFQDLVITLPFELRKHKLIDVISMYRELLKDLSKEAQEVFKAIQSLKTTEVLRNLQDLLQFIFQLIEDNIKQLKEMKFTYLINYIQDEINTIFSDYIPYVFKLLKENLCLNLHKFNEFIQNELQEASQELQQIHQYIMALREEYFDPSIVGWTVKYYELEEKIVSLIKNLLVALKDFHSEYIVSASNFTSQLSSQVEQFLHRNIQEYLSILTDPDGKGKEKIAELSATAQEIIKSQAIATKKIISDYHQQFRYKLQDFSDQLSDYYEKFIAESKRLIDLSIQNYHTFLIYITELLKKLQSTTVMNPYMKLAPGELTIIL
# Protocol: Spectra were recorded in the peptidic range (200-260 nm). To increase the signal-to-noise ratio, multiple spectra (three) were averaged for each measurement. The deconvolution of the molar elipticity spectra for each measurement was performed using the CDPro suite of software (by Narasimha Sreerama from Colorado State University) on a Dell PC.
structure (smiles),measurement,setting,value
"CC(C)CCC[C@@H](C)[C@H]1CCC2C(CC=O)C([C@@]3(C)CC[C@H](O)CC3=O)CC[C@@]21C (stereo partly drawn) [4a, 3βHydroxy-5-oxo-5,6-secocholestan-6-al]",cytotoxicity towards neuronal cell lines,neuronal cell lines,cytotoxic
same,lipid-loading of macrophages / foam cell formation,J774.1 macrophages,began lipid-loading and foam cells began to appear
same,SR-A expression,[1],did not increase expression of either receptor
same,CD36 expression,"CD36; J774A.1, 25 μM compound complexed with LDL (100 μg/ml protein), 6 h",little or no effect
same,CD36 expression,"CD36; cultured macrophages, compound in the absence of LDL",did not increase expression of either receptor
same,induction of E-selectin levels,"E-selectin (CD62E); HAAE-1, 1.25 μM complexed with LDL (100 μg/mL protein)",2 fold
same,induction of E-selectin levels,"E-selectin (CD62E); HAAE-1, 50 μM complexed with LDL (100 μg/mL protein)",about 8 fold
same,selectin (E-selectin) expression,"E-selectin (CD62E); HAAE-1, not complexed with LDL",no effects
same,ICAM-1 levels,"ICAM-1 (CD54); HAAE-1, 25 μM compound in the presence of LDL, 4 h",remain unchanged
same,integrin expression (ICAM-1),"ICAM-1 (CD54); HAAE-1, not complexed with LDL",no effects
same,"adhesion of U-937 monocytes to endothelial cell monolayers, above that of LDL alone",U-937 monocytes cells,"neither ozonolysis product 4a nor 5a, alone or in complex with LDL, nor CuOx-LDL significantly increased adhesion"
same,"THP-1 monocyte differentiation into macrophages (adherence, morphology)",THP-1 monocytes,neither became adherent nor developed the aforementioned morphological changes
same,aldolization of 4a,[2],no aldolization
same,aldolization of 4a,[3],no aldolization
same,a helical structure of LDL,LDL / apoB-100,~23±5%
